Reference: patent publication US8362072B2, “BRCA1-based breast or ovarian cancer treatment agents and methods of use” (University of Kansas, priority 2007, dated 2013)

Key:
human BRCA1 promoter = assay: BRCA1-luciferase reporter assay (Steady-Glo) in stably transfected MCF7 cells; type: cell-based; conditions: Homo sapiens, MCF7-BRCA1-luciferase cells, dilution series; for EC50: MCF7, 48 h; for EC90: 48 hours
Protocol: Hygromycin selected MCF7 cells were seeded in 384-well tissue culture plates. The first two columns of each plate were empty so as to include established positive and negative controls. Each of the remaining 352 wells contained a compound to be screened. MCF7 cells were incubated with the compounds for 48 hours. Luciferase activity was measured using the Steady Glo Luciferase Assay System (Promega). Briefly, 5×10^6 MCF7 cells were transfected with […] of purified pGL4.14 containing the human BRCA1 promoter (pGL4.14-hBRCA) with Effectene as per manufacturers protocol (Qiagen). Stable transfectants were selected with […] Hygromicin B. 1×10^5 or 2×10^5 stable transfectants were tested for luciferase activity with the Steady-Glo Luciferase Assay System (Promega).
Hygromycin selected MCF-7 cells (e.g., MCF7 clone pGL4.14-hBRCA1.3) stably transfected with the human BRCA1-luciferase reporter construct (e.g., pGL4.14-hBRCA1.3) were seeded in 384-well white tissue culture plates (Becton Dickenson, San Diego, Calif.) at 1×10^4 cells/well. These cells were then stimulated with indicated concentrations of genistein (Sigma-Aldrich, St. Louis, Mo.) for 0, 6, 9, 24 and 48 hours. Luciferase activity was measured using the Steady Glo Luciferase Assay System (Promega). The data shown in FIG. 3A is representative of 3 individual experiments.
Two different chemical libraries were screened for the ability to enhance BRCA1 gene expression. To examine the effects of each compound on BRCA1 expression, the human BRCA1 promoter was cloned and inserted upstream of the firefly luciferase gene in the plasmid pGL4.14 (BRCA1-Luc) (Promega), as described above. The ER positive human breast cancer cell line, MCF7, was transfected and stable transfectants were selected with hygromycin.
Briefly, compounds were plated in a 384 well plate in a total volume of 20 μl. A ten point dilution series was used at concentrations—100 µM, 10 μM, 1 μM, 100 nM, 10 nM, 1 nM, 0.1 nM, 0.01 nM, 0.0001 nM, 0 (DMSO vehicle only). A second dilution series of 100 μM, 32.5 μM, […], 3.6 μM, 1.2 μM, 400 nM, 132.2 nM, 45 nM, 14.8 nM, 5 nM, and 1.65 nM was also used. MCF7-BRCA1-luciferase cells were added to the compounds at a concentration of 1×10^4 cells/well in a volume of 25 μl. The 384 well plates, containing the compounds+cells, were then incubated at 37° C. for 48 hours. After 48 hours, luciferase activity was measured with the Steady-Glo® Luciferase Assay System (Promega, Madison, Wis.).

BRCA1 RNA = BRCA1 RNA expression in MCF7 cells by qRT-PCR (TaqMan, 18S normalised); type: cell-based, human; conditions: 48 hours, 3.65-32.5 μM, compared to DMSO and genistein
Protocol: Compounds 29 and 30 were studied for BRCA1 and 18S (e.g., housekeeping gene for normalization) RNA expression. Briefly, MCF7 cells (2×10^6) in 2 ml MEM were plated in a 6 well tissue culture plate and were either left nonstimulated or treated with DMSO (vehicle control), 10 μM Genistein, or 3 different concentrations of indicated test compound—3.65 μM, 10.8 μM, 32.5 μM. Following incubation at 37° C. for 48 hours, the media was removed and RNA was extracted per manufacturer's protocol using the RNeasy Plus RNA extraction kit made by Qiagen. Complementary DNA (cDNA) was generated per manufacturer's protocol from 1000 ng extracted RNA in a 60 μl volume using the High Capacity cDNA kit made by Applied Biosystems. Gene expression of BRCA1 and 18S was detected with the TaqMan Gene Expression assay kit made by Applied Biosystems. […] The […] reaction was run on either the ABI real time system 7500 or 7000 (see, Analysis of Relative Gene Expression Data Using Real-Time Quantitative PCR and the 2^−ΔΔCT Method. Kenneth J. Livak^a and Thomas D. Schmittgen^b, 1. ^a Applied Biosystems, Foster City, Calif., 94404 ^b Department of Pharmaceutical Sciences, College of Pharmacy, Washington State University, Pullman, Wash., 99164-6534. Methods, Volume 25, Issue 4, December 2001, Pages 402-408).

BRCA1 protein = BRCA1 protein expression in MCF7 cells by Western blot; type: cell-based, human; conditions: 48 hours, compared to DMSO
Protocol: Compounds 29 and 30 were studied for BRCA1 and actin (e.g., housekeeping gene for normalization) protein expression. Briefly, MCF7 cells (2×10^6) in 2 ml MEM were plated in a 6 well tissue culture plate and were either left nonstimulated or treated with DMSO (vehicle control), […] Genistein, or 3 different concentrations of indicated test compound—3.65 μM, […], 32.5 μM. Following incubation at 37° C. for 48 hours, the media was removed and the cells were washed 1× with 500 μl of ice cold PBS. Another 500 μl of ice cold PBS was then added and the cells were scraped off the well and transferred to a microcentrifuge tube. To ensure all cells were removed from the well, an additional […] of ice cold PBS was added to the well and any remaining cells were combined with the initial cell harvest into the microcentrifuge tube. The cells were then pelleted by centrifugation for 5 min at 3000 rpm, 4° C. The supernate was removed and the pellet was then lysed in 150 μl of ice cold RIPA buffer+1× protease inhibitors, on ice for 30 minutes, vortexing occasionally. The cellular debris was then removed by centrifugation for 20 minutes at 11,000 rpm, 4° C. The remaining supernate, containing the extracted proteins, was then transferred to a microcentrifuge tube and quantified using the Bio-Rad DC assay. 100 μg of protein+1×SDS-PAGE sample buffer was loaded onto an 8% Tris glycine gel. The proteins were separated in a tris glycine running buffer at 125 volts for 90 minutes. The proteins were then transferred out of the gel onto PVDF in an overnight transfer with 20% methanol at 35 volts, 4° C. The PVDF membrane was then blocked with 5% milk/PBST (0.1%) for 1 hour at room temperature (RT). BRCA1 protein was detected using anti-BRCA1 (Ab-1, EMD Biosciences) at a 1:250 dilution in 3% milk/PBST, overnight at 4° C. […] To monitor equal protein loading, actin was detected using anti-actin at a 1:200,000 dilution in 5% milk/PBST for 1 hr at RT. […] Chemiluminescence was detected using the SuperSignal West Femto kit made by Pierce Biotechnology and the UVP imaging center. […]

| Structure (SMILES) | EC50 (human BRCA1 promoter) [µM] | EC90 (human BRCA1 promoter) [µM] | BRCA1 RNA expression (BRCA1 RNA) | BRCA1 protein expression (BRCA1 protein) |
| --- | --- | --- | --- | --- |
| Cc1ccc(OCC(=O)O/N=C(\N)c2ccccn2)c(C)c1 [Cmpd 29] | 8.49 | 91.8 | increase BRCA1 RNA expression | increase endogenous BRCA1 |
| CCc1ccc(OCC(=O)O/N=C(\N)c2ccncc2)c(C)c1 [Cmpd 30] | 4.13 | 55.4 | increase BRCA1 RNA expression | increase endogenous BRCA1 |
